From patent US20230321043A1, “COMPOUNDS HAVING PSEUDOMONAS ANTI-BIOFILM PROPERTIES” (Københavns Universitet, priority 2020, published 2023)

Columns and labels:
[1] = tested on: c-di-GMP level of P. aeruginosa ΔwspFΔpelΔpsl/pCdrA-gfp; assay: microbe, parasite or virus in culture; type: cell-based, Pseudomonas aeruginosa
Experimental: The ΔwspF mutant overproduces c-di-GMP and the ΔpelΔpsl mutations renders the bacteria deficient in exopolysaccharide production, which keeps the growing bacteria in the planktonic mode.
The reduction of total cellular c-di-GMP level was determined as follows. To evaluate the impact of the various compounds on the c-di-GMP level of P. aeruginosa ΔwspFΔpelΔpsl/pCdrA-gfp, 20 hour old cultures of the strain were diluted 100 fold in microtiter plate wells (Nunc) containing […] aliquots of ABTrace medium supplemented with 0.2% glucose, 0.5% casamino acids, 60 μg/ml gentamicin, 1 μM FeCl3, 1% DMSO, and concentrations of compounds as indicated.
Subsequently the microtiter plates were incubated at 37° C. and 440 RPM in a TECAN reader (Infinite F200 PRO), and corresponding values of cell density (OD600) and GFP fluorescence were measured every 20 minutes for 24 hours. The reduction values indicated in the tables are calculated as fluorescence values divided by optical density at a time point where this value reached a plateau.
The resulting microtiter trays were incubated at 37° C. at 440 RPM in a TECAN reader (Infinite F200 PRO), and corresponding values of GFP flourescence (FU) and cell density (OD600) were measured every 20 minutes for 24 hours. […] In FIG. 3A and 3B, means and standard deviations (bars) represents 3 biological replicates (n=3).

[2] = tested on: total cellular c-di-GMP content of P. aeruginosa ΔwspF,Δpsl,Δpel; assay: HPLC coupled tandem-MS quantification of c-di-GMP extracts; type: cell-based, Pseudomonas aeruginosa; conditions: 100 μM, 8 hours of growth; pmol c-di-GMP per mg protein, FIG. 1
Experimental: Specifically, a 20 h old culture of P. aeruginosa ΔwspF,Δpsl,Δpel (Rybtke et al 2012) was diluted 100 fold into 25 mL aliquots of ABtrace media supplemented with 0.5% Cas amino acids, 0.2% glucose, 60 μg/mL of gentamicin, 1 μM FeCl3, 0.05% DMSO and either 100 μM H6-335-P1, 100 μM H6-335 or no compound as reference control. Acting as a positive control for low total cellular c-di-GMP content, a 20 hour old culture of strain P. aeruginosa ΔwspF,Δpsl,Δpel carrying plasmid pYhj::Gm (encoding a constitutively expressed YhjH phosphodiesterase) was also diluted 100 fold into 25 mL of ABtrace medium supplemented with 0.5% Cas amino acids, 0.2% glucose, 60 μg/mL of gentamicin, 1 μM FeCl3 and 0.05% DMSO. The 4 cultures were placed on a rotary shaker and following 8 hours of growth at 37° C. and 200 RPM culture samples for c-di-GMP extraction and protein quantification was collected from each of the 4 different cultures. C-di-GMP extracts were prepared and subsequently quantified by HPLC coupled tandem-MS analysis as previously described (Groizeleau et al., 2016), while protein quantification was carried out using the Pierce 660 nm Protein Assay (Thermo Scientific Cat. No 22660) according to the manufacturer's protocol. […]

[3] = tested on: P. aeruginosa ΔbifAΔwspF mutant; assay: biofilm formation of bifA knockout, crystal violet; type: cell-based, Pseudomonas aeruginosa; conditions: 100 μM, 16 hours of growth, FIG. 6B left
Experimental: Biofilm quantification was done using a 96 well microtiter platform where 20 hour old cultures of the deletion mutant of P. aeruginosa PA01 (ΔwspF) and its isogenic bifA deletion mutant (ΔbifA-) were diluted […] into 100 μL ABTrace media aliquots (Pamp and Tolker-Nielsen, 2007) supplemented with 0.2% glucose, 0.5% casa amino acids, 1 μM FeCl3, 0.2% DMSO and either 100 μM or 0 μM of H6-335-P1. The resulting cultures were incubated at 37° C. and 160 RPM, and following 16 hours of growth the amounts of biofilm were quantified by the use of crystal violet staining.

[4] = tested on: PA01(wspF)::araC-PBAD-bifA+; assay: biofilm formation with arabinose inducible bifA expression; type: cell-based, Pseudomonas aeruginosa; conditions: 6 to 100 μM with 0.05% or 0.2% arabinose, 18 hours, FIG. 6C
Experimental: Using a 96 well microtiter platform, overnight cultures of the strains were diluted 200 fold into 100 uL ABTrace media aliquots (Pamp and Tolker-Nielsen, 2007) supplemented with 0.2% glucose, 0.5% casa amino acids, 1 μM FeCl3, 1% DMSO and varying concentrations of arabinose and H6-335-P1.
The resulting microtiter plates were sealed with air permeable lids and biofilm cultures were grown at 37° C. on a rotary shaker (280 RPM) for 18 hours, after which the culture supernatants were discarded and biofilm present in the wells were quantified by crystal violet staining (Groizeleau et al., 2016).
Finally, biofilm prevailing following treatment with varying concentrations of arabinose and H6-335-P1 were plotted. The amounts of supplemented arabinose (0% A, 0.05% A or 0.2% A) and H6-335-P1 (100 μM, 50 μM, 25 μM, 12 μM, 6 μM or 0 μM) are indicated below the X-axis of FIG. 6C. Numbers above the bars in FIG. 6 represents the crystal violet measurements.

[5] = tested on: P. aeruginosa biofilms; assay: time dependent antibiotic killing of peg biofilms after H6-335-P1 treatment; type: cell-based, Pseudomonas aeruginosa; conditions: 2 hours 100 μM H6-335-P1, then 30 μg/ml tobramycin or 0.5 μg/ml ciprofloxacin
[6] = tested on: Klebsiella pneumoniea; assay: biofilm formation / dispersal, host range; type: cell-based; conditions: data not shown

## N=C1NN=C(N)/C1=N/Nc1ccccc1F [H6-335-P1, 4-[(2-fluorophenyl) hydrazinylidene]pyrazole-3,5-diamine]
[1]; 100 μM, compared with control cultures with 1% DMSO
  reduction of the fluorescence output of the c-di-GMP monitor cultures: 80%
[1]; Pseudomonas aeruginosa, read-out: Reduction of total cellular c-di-GMP level
  inhibition at 100 µM: 80%
[2]
  reduction of total cellular c-di-GMP content: 90%
[3]
  response of biofilm formation of ΔbifAΔwspF mutant: no longer responded to the presence of H6-335-P1
[4]
  inhibition of biofilm formation in arabinose stimulated (bifA induced) cultures: synergistic inhibitory effect on biofilm formation
[5]
  surviving cells of biofilms after antibiotic challenge: substantial decrease of surviving cells
[6]
  biofilm formation of Klebsiella pneumoniea: failed to reduce biofilm formation
